According to ChEMBL document CHEMBL3714768 (2012):
pIC50: −log10 of the molar value.

Tests used:
[1] = Cytotoxicity against human HCT116 cells by fluorescent Calcein-AM assay; assay type: functional, cell-based; conditions: hct-116
[2] = Selectivity index, ratio of IC50 for purified human red blood cell PP2A (unknown origin) to IC50 for purified rabbit skeletal muscle PP1
[3] = Cytotoxicity against human DU145 cells by fluorescent Calcein-AM assay; assay type: functional, cell-based; conditions: du-145
MCF7 = assay: Cytotoxicity against human MCF7 cells by fluorescent Calcein-AM assay; assay type: functional, cell-based
[4] = molecular target: Serine/threonine-protein phosphatase PP1-alpha catalytic subunit (Oryctolagus cuniculus, UniProt P62139); assay: Inhibition of purified rabbit skeletal muscle protein phosphatase 1 using DiFMUP substrate incubated for 30 mins
Chain of Serine/threonine-protein phosphatase PP1-alpha catalytic subunit (P62139 whole entry): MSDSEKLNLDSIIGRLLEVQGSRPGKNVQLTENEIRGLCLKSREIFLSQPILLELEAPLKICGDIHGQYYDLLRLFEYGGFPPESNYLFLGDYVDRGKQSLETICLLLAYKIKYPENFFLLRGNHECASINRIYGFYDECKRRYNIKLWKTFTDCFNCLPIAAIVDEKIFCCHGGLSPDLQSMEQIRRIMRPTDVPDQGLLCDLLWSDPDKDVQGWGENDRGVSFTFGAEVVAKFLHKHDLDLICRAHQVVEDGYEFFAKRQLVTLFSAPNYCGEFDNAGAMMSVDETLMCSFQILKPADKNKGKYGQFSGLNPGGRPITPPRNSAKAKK

SMILES	IC50 [1]	Ratio IC50 [2]	IC50 [3]	IC50 (MCF7)	pIC50 [4]
CCC(/C=C/C(=O)O)=C\[C@@H](O)C[C@H](C)C[C@@H](C)CC[C@H](O)[C@H](C)C(=O)C[C@@H](O)[C@H](C)[C@@H](C)OC(=O)C[C@@H](O)C1=C(C)C(=O)OC1=O	Not Active	4.5	Not Active	Not Active	
CCC(/C=C/C(=O)O)=C\[C@H](O)C[C@H](C)C[C@@H](C)CC[C@H](O)[C@H](C)C(=O)C[C@@H](O)[C@H](C)[C@@H](C)OC(=O)C[C@@H](O)C1=C(C)C(=O)OC1=O		3.8			
CC/C(=C\CC[C@H](C)C[C@@H](C)CC[C@H](O)[C@H](C)C(=O)C[C@@H](O)[C@H](C)[C@@H](C)OC(=O)C[C@@H](O)C1=C(C)C(=O)OC1=O)C(O)CC(=O)O (some centres undefined)	Not Active	3.8	Not Active	Not Active	
CCC(/C=C/C(=O)O)=C\C(=O)C[C@H](C)C[C@@H](C)CC[C@H](O)[C@H](C)C(=O)C[C@@H](O)[C@H](C)[C@@H](C)OC(=O)C[C@@H](O)C1=C(C)C(=O)OC1=O					4.55
CCC(/C=C/C(=O)O)=C\CC[C@H](C)C[C@@H](C)CC[C@H](O)[C@H](C)C(=O)C[C@@H](O)[C@H](C)[C@@H](C)OC(=O)C[C@@H](O)C1=C(C)C(=O)OC1=O	Not Active	4	Not Active	Not Active	
